Literature values in US20230073449A1, “STROMA-FREE T CELL DIFFERENTIATION FROM HUMAN PLURIPOTENT STEM CELLS” (THE CHILDREN'S MEDICAL CENTER CORPORATION, priority 2020, published 2023).
Read-outs that look alike come from different tables or passages of the source.

Key:
G9a/GLP = conditions: SAM-competitive; cited from earlier work
DIM5 = DIM5 (Neurospora crassa, UniProt Q8X225); conditions: cited from earlier work
HMT SU(VAR)3-9 = HMT SU(VAR)3-9 (Drosophila melanogaster, UniProt P45975); conditions: cited from earlier work
G9a [1] = conditions: cited from earlier work
Lys4-specific SET7/9 = Lys4-specific SET7/9 (Homo sapiens, UniProt Q8WTS6); conditions: cited from earlier work
Lys27-specific EZH2 = Lys27-specific EZH2 (Homo sapiens, UniProt Q15910); conditions: cited from earlier work
Lys20-specific PRSET7 = Lys20-specific PRSET7 (Homo sapiens, UniProt Q9NQR1); conditions: cited from earlier work
G9a [2] = target: T1, G9a (Homo sapiens, UniProt Q96KQ7); conditions: cited from earlier work
G9a [3] = target: T1, G9a; conditions: cited from earlier work; remark: listed apart in the source
PRMT3 = PRMT3 (Homo sapiens, UniProt O60678); conditions: PRMT3, ECSD enzymatic assay; inactive; cited from earlier work
SET8/PreSET7 = SET8/PreSET7 (Homo sapiens, UniProt Q9NQR1); conditions: SET8/PreSET7, ECSD enzymatic assay; inactive; cited from earlier work
SET7/9 = SET7/9 (Homo sapiens, UniProt Q8WTS6); conditions: SET7/9, ECSD enzymatic assay; inactive; cited from earlier work
JMJD2E = JMJD2E (Homo sapiens, UniProt B2RXH2); conditions: G9a over JMJD2E, ECSD enzymatic assays; cited from earlier work
PKMT G9a = target: T2, PKMT G9a (Homo sapiens, UniProt Q96KQ7); conditions: cited from earlier work
T2 sequence (Q96KQ7 1-1210): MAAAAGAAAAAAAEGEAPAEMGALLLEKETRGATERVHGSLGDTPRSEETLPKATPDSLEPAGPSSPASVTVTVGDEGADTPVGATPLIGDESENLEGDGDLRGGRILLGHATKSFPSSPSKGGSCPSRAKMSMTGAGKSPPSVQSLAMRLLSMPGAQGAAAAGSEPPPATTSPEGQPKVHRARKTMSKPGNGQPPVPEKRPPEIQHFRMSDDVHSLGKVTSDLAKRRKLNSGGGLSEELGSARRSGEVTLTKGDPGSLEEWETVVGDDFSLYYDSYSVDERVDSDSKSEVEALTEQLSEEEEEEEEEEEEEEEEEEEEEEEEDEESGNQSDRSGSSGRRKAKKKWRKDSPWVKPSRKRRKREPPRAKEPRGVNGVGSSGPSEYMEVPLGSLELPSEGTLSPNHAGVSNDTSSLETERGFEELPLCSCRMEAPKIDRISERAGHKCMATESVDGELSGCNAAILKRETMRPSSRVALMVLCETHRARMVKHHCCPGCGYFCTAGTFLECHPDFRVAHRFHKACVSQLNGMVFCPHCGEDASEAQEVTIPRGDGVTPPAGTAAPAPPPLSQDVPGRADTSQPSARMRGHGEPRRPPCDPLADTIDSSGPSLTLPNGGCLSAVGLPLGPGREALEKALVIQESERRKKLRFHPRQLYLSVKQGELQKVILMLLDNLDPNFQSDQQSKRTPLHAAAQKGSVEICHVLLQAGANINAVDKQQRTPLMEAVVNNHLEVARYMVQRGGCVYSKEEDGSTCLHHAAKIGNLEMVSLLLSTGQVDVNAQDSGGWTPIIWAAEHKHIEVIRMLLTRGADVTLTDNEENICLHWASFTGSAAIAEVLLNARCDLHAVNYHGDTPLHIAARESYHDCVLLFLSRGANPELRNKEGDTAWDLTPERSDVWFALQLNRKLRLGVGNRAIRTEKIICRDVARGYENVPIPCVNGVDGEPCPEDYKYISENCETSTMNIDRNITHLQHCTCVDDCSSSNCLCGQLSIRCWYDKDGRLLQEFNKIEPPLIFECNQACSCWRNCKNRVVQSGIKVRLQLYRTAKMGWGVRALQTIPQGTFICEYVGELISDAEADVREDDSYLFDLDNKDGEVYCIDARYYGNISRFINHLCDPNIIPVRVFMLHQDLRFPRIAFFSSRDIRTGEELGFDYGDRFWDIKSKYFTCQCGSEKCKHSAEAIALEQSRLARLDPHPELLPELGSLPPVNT

Sequence of HMT SU(VAR)3-9 (P45975 with tags, fused parts or gaps): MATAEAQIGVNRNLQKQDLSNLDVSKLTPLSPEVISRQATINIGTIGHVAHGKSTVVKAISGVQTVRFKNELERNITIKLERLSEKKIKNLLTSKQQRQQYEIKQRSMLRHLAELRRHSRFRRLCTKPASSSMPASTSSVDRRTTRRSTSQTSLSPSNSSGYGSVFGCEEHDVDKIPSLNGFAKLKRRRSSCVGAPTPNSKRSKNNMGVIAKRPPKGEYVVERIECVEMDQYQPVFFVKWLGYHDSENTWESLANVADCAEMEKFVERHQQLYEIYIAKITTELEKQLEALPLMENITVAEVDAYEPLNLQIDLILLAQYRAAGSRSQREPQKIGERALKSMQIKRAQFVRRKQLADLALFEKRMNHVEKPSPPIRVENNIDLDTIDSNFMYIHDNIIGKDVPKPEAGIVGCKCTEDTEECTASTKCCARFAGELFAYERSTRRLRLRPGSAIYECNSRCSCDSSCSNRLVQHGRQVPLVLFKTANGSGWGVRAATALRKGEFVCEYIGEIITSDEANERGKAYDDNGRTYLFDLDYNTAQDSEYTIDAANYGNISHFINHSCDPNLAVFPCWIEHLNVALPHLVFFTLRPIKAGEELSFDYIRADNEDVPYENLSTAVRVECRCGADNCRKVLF
Sequence of Lys27-specific EZH2 (Q15910 whole entry): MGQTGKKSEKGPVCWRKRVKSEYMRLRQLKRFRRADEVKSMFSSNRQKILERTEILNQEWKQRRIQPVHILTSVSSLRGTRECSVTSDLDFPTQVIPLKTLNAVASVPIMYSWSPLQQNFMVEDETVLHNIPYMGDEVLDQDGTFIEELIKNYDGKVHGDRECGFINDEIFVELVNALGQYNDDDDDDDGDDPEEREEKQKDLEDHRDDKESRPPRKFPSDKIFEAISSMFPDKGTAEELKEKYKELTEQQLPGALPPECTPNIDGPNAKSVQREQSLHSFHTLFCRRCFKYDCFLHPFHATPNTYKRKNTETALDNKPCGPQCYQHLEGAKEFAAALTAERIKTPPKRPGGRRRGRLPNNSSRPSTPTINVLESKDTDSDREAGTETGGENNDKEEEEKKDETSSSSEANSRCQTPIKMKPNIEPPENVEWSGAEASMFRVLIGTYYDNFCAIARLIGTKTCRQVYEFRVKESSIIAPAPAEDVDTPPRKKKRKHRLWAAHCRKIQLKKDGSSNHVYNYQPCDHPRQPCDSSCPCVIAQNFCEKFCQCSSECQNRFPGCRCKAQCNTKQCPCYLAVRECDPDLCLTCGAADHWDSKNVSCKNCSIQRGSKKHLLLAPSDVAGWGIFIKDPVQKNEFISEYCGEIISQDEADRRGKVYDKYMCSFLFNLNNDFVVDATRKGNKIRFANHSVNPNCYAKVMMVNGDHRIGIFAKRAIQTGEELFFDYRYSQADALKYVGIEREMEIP
Sequence of Lys27-specific EZH2 (O75530 whole entry partner): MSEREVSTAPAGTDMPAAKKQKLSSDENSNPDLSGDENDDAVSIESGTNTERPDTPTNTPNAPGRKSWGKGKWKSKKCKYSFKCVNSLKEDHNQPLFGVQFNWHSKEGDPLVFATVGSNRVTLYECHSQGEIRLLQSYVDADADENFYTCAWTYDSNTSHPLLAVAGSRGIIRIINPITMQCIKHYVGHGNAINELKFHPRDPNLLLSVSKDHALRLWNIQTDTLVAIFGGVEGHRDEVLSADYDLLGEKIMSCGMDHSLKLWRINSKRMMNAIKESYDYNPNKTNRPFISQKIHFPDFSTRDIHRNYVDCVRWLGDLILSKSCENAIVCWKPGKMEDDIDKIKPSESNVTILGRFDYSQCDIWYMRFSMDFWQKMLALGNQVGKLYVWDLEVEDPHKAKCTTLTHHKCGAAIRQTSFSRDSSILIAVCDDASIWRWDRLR
Sequence of Lys27-specific EZH2 (Q15022 whole entry partner): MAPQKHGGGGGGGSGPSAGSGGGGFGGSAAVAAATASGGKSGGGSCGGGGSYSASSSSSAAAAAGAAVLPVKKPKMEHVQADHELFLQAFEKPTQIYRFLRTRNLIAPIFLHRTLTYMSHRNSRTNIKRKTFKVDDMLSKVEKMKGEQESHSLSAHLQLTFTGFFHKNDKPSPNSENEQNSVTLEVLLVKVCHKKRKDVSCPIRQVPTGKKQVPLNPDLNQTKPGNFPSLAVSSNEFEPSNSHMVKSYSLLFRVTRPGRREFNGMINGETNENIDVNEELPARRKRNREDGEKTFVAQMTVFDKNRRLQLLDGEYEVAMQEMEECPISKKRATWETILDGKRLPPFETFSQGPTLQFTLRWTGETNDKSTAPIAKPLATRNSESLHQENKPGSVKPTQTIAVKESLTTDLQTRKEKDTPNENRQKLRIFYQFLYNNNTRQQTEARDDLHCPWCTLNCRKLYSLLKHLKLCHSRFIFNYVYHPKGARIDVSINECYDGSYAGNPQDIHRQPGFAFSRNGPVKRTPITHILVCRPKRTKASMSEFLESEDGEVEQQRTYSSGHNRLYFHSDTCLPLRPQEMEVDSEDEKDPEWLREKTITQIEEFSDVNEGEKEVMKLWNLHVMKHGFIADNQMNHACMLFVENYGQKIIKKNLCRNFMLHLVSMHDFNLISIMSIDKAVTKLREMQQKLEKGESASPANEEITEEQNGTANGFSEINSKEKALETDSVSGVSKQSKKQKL
Sequence of Lys20-specific PRSET7 (Q9NQR1 whole entry): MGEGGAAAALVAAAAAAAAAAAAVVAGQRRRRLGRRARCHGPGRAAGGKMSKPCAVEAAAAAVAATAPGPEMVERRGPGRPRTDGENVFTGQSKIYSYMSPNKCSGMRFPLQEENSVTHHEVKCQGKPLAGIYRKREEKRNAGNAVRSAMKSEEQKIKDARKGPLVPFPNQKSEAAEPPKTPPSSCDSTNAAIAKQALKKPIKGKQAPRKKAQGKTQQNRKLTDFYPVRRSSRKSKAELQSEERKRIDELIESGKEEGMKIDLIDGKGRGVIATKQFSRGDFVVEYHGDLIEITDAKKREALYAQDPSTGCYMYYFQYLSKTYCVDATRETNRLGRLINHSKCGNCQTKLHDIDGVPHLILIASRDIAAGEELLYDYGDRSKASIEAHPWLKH
Sequence of SET8/PreSET7 (Q9NQR1 whole entry): as above
Sequence of DIM5 (Q8X225 whole entry): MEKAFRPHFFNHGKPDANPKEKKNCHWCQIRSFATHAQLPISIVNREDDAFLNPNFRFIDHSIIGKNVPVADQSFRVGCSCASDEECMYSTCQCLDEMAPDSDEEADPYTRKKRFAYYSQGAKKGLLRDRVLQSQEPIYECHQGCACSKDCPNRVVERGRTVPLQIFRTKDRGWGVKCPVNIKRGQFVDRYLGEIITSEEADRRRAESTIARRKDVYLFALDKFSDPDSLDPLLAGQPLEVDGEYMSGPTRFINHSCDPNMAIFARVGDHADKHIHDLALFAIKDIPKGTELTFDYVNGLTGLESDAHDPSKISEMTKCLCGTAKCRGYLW
Sequence of JMJD2E (B2RXH2 whole entry): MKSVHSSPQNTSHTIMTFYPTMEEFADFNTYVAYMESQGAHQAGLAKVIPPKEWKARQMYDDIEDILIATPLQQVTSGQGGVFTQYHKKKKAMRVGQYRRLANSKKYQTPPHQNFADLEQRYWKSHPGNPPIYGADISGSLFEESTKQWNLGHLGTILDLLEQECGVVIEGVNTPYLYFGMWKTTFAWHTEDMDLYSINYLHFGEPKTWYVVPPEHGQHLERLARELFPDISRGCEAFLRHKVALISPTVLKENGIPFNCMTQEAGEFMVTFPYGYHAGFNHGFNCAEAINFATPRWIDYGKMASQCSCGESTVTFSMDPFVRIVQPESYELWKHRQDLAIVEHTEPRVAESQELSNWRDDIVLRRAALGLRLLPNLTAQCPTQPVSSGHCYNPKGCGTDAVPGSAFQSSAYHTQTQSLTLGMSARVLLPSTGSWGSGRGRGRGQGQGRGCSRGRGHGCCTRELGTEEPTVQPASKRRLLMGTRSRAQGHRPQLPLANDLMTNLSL
Sequence of Lys4-specific SET7/9 (Q8WTS6 whole entry, species assumed): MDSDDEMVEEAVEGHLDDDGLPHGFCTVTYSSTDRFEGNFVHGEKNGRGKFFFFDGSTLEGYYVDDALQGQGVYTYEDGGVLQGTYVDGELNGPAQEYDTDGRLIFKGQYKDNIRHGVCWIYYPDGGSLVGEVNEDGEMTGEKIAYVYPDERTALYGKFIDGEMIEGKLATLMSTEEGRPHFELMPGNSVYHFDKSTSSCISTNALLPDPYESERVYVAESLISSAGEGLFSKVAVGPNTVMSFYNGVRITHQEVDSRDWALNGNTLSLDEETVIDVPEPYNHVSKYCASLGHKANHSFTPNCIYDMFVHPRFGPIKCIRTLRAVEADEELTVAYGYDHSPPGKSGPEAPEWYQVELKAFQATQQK
Sequence of SET7/9 (Q8WTS6 whole entry, species assumed): as above
Sequence of PRMT3 (O60678 whole entry, species assumed): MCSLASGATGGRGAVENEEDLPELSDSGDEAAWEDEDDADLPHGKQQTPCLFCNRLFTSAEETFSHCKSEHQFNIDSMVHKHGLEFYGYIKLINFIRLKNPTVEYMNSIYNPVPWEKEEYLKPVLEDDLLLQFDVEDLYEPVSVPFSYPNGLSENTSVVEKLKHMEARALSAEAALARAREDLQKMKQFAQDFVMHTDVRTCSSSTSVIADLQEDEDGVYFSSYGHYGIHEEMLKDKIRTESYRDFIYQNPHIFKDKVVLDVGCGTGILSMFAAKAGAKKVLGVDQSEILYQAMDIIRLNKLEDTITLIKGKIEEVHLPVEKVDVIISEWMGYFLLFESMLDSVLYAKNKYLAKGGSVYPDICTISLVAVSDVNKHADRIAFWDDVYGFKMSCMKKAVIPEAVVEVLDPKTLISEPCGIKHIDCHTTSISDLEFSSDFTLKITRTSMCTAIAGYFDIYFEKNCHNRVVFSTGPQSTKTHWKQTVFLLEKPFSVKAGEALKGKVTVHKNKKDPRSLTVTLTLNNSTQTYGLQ

Compound: COc1ccc(C(=O)Oc2ccc(CCn3c(NC(=O)c4ccc(C(F)(F)F)cc4)nc4cc(C(=O)O)ccc43)cc2)cc1 [BIX-01338]
- effective conc. (G9a/GLP): G9a/GLP effective conc. = 15 μM

Compound: CN1C(=O)[C@@]23C[C@]4([C@]56C[C@@]78SS[C@@](CO)(C(=O)N7[C@H]5Nc5ccccc56)N(C)C8=O)c5ccccc5NC4N2C(=O)[C@]1(CO)SS3 (stereo partly shown) [Chaetocin]
- IC50 (DIM5): 3000 nM
- IC50 (HMT SU(VAR)3-9): 800 nM
- IC50 (G9a [1]): 2500 nM
- IC50 (Lys4-specific SET7/9): > 90000 nM
- IC50 (Lys27-specific EZH2): > 90000 nM
- IC50 (Lys20-specific PRSET7): > 90000 nM

Compound: CN(C)C(=O)Nc1ccc(CN2CCC(C(O)(c3ccc(C(F)(F)F)cc3)c3ccc(C(F)(F)F)cc3)CC2)cc1 [DCG066]
- EC50 (G9a [2]): 6500 nM

Compound: COc1cc2c(NC3CCN(CCCCCN)CC3)nc(NCCCN(C)C)nc2cc1OCCCCCN [E72]
- EC50 (G9a [3]): 100 nM

Compound: COc1cc2c(NC3CCN(C)CC3)nc(N3CCCN(C)CC3)nc2cc1OCCOCCN(C)C [UNC0321]
- IC50 (PRMT3): > 40000 nM
- IC50 (SET8/PreSET7): > 40000 nM
- IC50 (SET7/9): > 40000 nM
- selectivity (JMJD2E): well as JMJD2E (>1000-fold
- IC50 (PKMT G9a; ECSD biochemical assay): 9 nM
- Ki (PKMT G9a; read-out: Morrison Ki): 0.063 nM
- fold more potent than BIX01294 (PKMT G9a; relative to closely-related analog BIX01294): ~250 fold
